Legend:
[1] = biological target: TYK2 (Homo sapiens (Human), UniProt P29597); assay: Tyk2 radioactive kinase assay; format: biochemical; settings: ATP 10 μM
Outline: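 Recombinant human TYK2 (Invitrogen) was mixed with 20 μM peptide substrate in a buffer of 20 mM Hepes pH 7.5, 10 mM MgCl2, 1 mM EGTA, 0.02% Brij35, 0.02 mg/mL BSA, 0.1 mM […], 2 mM DTT and 1% DMSO, and compounds in DMSO were added. Adding ^33P-ATP (10 μM ATP) started the reaction, which ran 120 min at room temperature. Mixtures were then spotted onto P81 ion-exchange paper, washed thoroughly in 0.75% phosphoric acid, and counted for radioactivity.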

[2] = biological target: JAK2 (Homo sapiens (Human), UniProt O60674); assay: JAK2 radioactive kinase assay; format: biochemical; settings: ATP 10 μM
Chain of JAK2 (O60674 whole entry): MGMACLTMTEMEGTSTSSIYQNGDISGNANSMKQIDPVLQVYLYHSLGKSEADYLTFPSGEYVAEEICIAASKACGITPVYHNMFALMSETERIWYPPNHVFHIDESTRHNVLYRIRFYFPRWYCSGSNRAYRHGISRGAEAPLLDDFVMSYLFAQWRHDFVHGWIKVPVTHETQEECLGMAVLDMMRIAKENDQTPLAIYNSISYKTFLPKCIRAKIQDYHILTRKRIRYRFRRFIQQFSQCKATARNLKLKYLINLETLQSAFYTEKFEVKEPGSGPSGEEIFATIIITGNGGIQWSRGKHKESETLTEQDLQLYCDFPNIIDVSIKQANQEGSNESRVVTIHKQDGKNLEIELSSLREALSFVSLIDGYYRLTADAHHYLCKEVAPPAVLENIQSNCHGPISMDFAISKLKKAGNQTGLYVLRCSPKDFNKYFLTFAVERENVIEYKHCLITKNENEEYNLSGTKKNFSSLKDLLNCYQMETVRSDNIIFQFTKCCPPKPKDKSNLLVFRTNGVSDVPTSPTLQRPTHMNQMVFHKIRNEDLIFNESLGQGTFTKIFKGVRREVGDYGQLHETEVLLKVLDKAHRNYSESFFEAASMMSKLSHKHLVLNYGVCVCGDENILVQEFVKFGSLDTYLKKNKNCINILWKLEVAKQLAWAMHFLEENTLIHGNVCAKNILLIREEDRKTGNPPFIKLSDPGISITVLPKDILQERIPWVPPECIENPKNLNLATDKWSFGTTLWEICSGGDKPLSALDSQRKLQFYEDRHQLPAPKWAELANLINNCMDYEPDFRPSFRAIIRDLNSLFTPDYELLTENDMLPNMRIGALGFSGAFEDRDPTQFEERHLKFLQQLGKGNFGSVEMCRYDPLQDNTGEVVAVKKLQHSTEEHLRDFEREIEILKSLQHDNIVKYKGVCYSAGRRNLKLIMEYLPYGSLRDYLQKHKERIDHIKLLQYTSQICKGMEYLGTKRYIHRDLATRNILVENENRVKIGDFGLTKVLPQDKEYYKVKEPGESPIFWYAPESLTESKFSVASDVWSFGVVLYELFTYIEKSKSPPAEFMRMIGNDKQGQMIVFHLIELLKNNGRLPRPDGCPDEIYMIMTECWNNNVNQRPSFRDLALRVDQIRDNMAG
Outline: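 Radiometric assay in Hepes pH 7.5, MgCl2, EGTA, Brij35, BSA, DTT, 1% DMSO, with 10 μM [33P]ATP, 120 min at room temp; P81 paper capture and counting. […]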

[3] = test system: Tyk2-pSTAT4 (IL-12 induced pSTAT4); assay: IL-12 induced pSTAT4 in human PBMC; format: cell-based; settings: Homo sapiens, PBMC, 0.5 h, 1.7 ng/mL IL-12, 30 minutes
Outline: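 Thawed human PBMC (200,000 cells/well, serum-containing medium) preincubated with compound 1 hr at 37 C, 0.1% DMSO final. Stimulated with 1.7 ng/mL IL-12 (final) for 30 minutes; pSTAT4 and total STAT4 in lysates measured by MSD immunoassay.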

[4] = test system: JAK2-pSTAT5 (GM-CSF induced pSTAT5); assay: GM-CSF induced pSTAT5 in human PBMC; format: cell-based; settings: Homo sapiens, PBMC, 20 min, 5 ng/mL GM-CSF
Description: Human PBMC are isolated from buffy coat and are stored frozen for assays as needed. Cells for assay are thawed and resuspended in complete media containing serum, then cells are diluted to 1.67 E6 cells/ml so that 120 ul per well is 200,000 cells. 15 ul of compound or DMSO is added to the well at the desired concentrations and incubated at 1 hr at 37 C. 15 ul of stimulus (final concentration of 1.7 ng/mL IL-12) is added for 30 minutes prior to pSTAT4 and total STAT4 analysis using cell lysates prepared and analyzed by MSD reagents as per manufacturer protocol. The final DMSO concentration of compound in the assay is 0.1%.
Cells are prepared for analysis as in the above procedure and 15 ul of GM-CSF (final concentration 5 ng/mL) is added for 20 minutes prior to pSTAT5 and total STAT5 analysis using cell lysates prepared and analyzed by MSD reagents as per manufacturer protocol. The final DMSO concentration of compound in the assay is 0.1%.

Chain of TYK2 (P29597 whole entry): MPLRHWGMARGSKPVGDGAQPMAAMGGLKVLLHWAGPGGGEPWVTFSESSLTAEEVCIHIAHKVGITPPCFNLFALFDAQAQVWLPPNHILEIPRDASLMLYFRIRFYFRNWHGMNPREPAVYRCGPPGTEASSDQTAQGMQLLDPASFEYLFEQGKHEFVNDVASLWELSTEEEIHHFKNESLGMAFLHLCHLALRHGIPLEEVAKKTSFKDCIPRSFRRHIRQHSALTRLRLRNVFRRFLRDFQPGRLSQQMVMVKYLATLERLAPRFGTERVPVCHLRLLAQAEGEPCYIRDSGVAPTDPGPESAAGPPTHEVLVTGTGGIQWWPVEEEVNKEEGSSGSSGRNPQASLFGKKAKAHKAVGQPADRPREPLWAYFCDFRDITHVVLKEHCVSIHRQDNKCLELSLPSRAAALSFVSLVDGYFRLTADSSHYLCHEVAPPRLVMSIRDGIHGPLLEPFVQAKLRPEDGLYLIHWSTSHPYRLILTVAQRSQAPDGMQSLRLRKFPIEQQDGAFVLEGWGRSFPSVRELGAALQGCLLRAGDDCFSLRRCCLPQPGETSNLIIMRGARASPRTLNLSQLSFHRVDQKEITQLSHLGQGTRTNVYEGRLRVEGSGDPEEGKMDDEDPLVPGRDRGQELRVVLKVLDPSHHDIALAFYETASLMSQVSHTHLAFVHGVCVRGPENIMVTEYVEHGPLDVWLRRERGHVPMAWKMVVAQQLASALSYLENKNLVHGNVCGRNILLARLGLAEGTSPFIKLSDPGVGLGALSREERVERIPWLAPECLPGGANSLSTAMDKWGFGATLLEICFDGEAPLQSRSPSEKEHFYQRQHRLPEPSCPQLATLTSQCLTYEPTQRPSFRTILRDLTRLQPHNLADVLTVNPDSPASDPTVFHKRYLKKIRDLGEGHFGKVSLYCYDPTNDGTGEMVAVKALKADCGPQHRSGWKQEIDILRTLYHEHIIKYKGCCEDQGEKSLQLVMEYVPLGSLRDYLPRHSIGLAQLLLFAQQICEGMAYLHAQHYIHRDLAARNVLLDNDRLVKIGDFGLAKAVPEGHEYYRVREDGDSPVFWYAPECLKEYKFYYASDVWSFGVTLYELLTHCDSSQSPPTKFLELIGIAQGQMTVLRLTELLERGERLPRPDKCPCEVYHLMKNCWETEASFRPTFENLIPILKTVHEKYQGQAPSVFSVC

| SMILES | Ki [1] | Ki [2] | EC50 [3] | EC50 [4] |
| --- | --- | --- | --- | --- |
| C[C@@]1(O)CCN(c2ccn(-c3cc(-c4c(F)cccc4C#N)nc4c3C(=O)NC4)n2)C1 [I-92, (R)-3-fluoro-2-(4-(3-(3-hydroxy-3-methylpyrrolidin-1-yl)-1H-pyrazol-1-yl)-5-oxo-6,7-dihydro-5H-pyrrolo[3,4-b]pyridin-2-yl)benzonitrile] | 0.1 to 10 nM | 10 to 100 nM | 30 to 100 nM | 100 to 2000 nM |
| N#Cc1cccc(F)c1-c1cc(-n2ccc(N3CCC[C@H](CO)C3)n2)c2c(n1)CNC2=O [I-98, (S)-3-fluoro-2-(4-(3-(3-(hydroxymethyl)piperidin-1-yl)-1H-pyrazol-1-yl)-5-oxo-6,7-dihydro-5H-pyrrolo[3,4-b]pyridin-2-yl)benzonitrile] | 0.1 to 10 nM | 10 to 100 nM | 30 to 100 nM | 100 to 2000 nM |
| N#Cc1cccc(F)c1-c1cc(-n2ccc(N3CCC4(C3)OCCO4)n2)c2c(n1)CNC2=O [I-100, 2-(4-(3-(1,4-dioxa-7-azaspiro[4.4]nonan-7-yl)-1H-pyrazol-1-yl)-5-oxo-6,7-dihydro-5H-pyrrolo[3,4-b]pyridin-2-yl)-3-fluorobenzonitrile] | 0.009 to 0.1 nM | 0.1 to 10 nM | 30 to 100 nM | 100 to 2000 nM |
| N#Cc1cccc(F)c1-c1cc(-n2ccc([C@H]3CCCO3)n2)c2c(n1)CNC2=O [I-103, (R)-3-fluoro-2-(5-oxo-4-(3-(tetrahydrofuran-2-yl)-1H-pyrazol-1-yl)-6,7-dihydro-5H-pyrrolo[3,4-b]pyridin-2-yl)benzonitrile] | 0.1 to 10 nM | 10 to 100 nM | 100 to 2000 nM | 100 to 2000 nM |
| N#Cc1cccc(F)c1-c1cc(-n2ccc([C@@H]3CCCO3)n2)c2c(n1)CNC2=O [I-104, (S)-3-fluoro-2-(5-oxo-4-(3-(tetrahydrofuran-2-yl)-1H-pyrazol-1-yl)-6,7-dihydro-5H-pyrrolo[3,4-b]pyridin-2-yl)benzonitrile] | 0.1 to 10 nM | 100 to 1000 nM | 100 to 2000 nM | 100 to 2000 nM |
| [2H]C1([2H])NC(=O)c2c(-n3ccc(N4CCC[C@@](C)(O)C4)n3)cc(-c3c(F)cccc3C#N)nc21 [I-111, (R)-3-fluoro-2-(4-(3-(3-hydroxy-3-methylpiperidin-1-yl)-1H-pyrazol-1-yl)-5-oxo-6,7-dihydro-5H-pyrrolo[3,4-b]pyridin-2-yl-7,7-d2)benzonitrile] | 0.1 to 10 nM | 10 to 100 nM | 30 to 100 nM | 100 to 2000 nM |
| C[C@H]1CC[C@@H](O)CN1c1ccn(-c2cc(-c3c(F)cccc3C#N)nc3c2C(=O)NC3)n1 [I-113, 3-fluoro-2-(4-(3-((2S,5R)-5-hydroxy-2-methylpiperidin-1-yl)-1H-pyrazol-1-yl)-5-oxo-6,7-dihydro-5H-pyrrolo[3,4-b]pyridin-2-yl)benzonitrile] | 0.1 to 10 nM | 10 to 100 nM | 100 to 2000 nM | 100 to 2000 nM |
| [2H]C1([2H])NC(=O)c2c(-n3ccc(N4CC[C@@H](O)C4)n3)cc(-c3c(F)cccc3C#N)nc21 [I-114, (R)-3-fluoro-2-(4-(3-(3-hydroxypyrrolidin-1-yl)-1H-pyrazol-1-yl)-5-oxo-6,7-dihydro-5H-pyrrolo[3,4-b]pyridin-2-yl-7,7-d2)benzonitrile] | 0.1 to 10 nM | 0.1 to 10 nM | 30 to 100 nM | 100 to 2000 nM |
| N#Cc1cccc(F)c1-c1cc(-n2ccc(N3CCC[C@@](N)(C(F)(F)F)C3)n2)c2c(n1)CNC2=O [I-118, (S)-2-(4-(3-(3-amino-3-(trifluoromethyl)piperidin-1-yl)-1H-pyrazol-1-yl)-5-oxo-6,7-dihydro-5H-pyrrolo[3,4-b]pyridin-2-yl)-3-fluorobenzonitrile] | 0.009 to 0.1 nM | 0.1 to 10 nM | 30 to 100 nM | 100 to 2000 nM |
| N#Cc1cccc(F)c1-c1cc(-n2ccc(N3CCC[C@](N)(C(F)(F)F)C3)n2)c2c(n1)CNC2=O [I-119, (R)-2-(4-(3-(3-amino-3-(trifluoromethyl)piperidin-1-yl)-1H-pyrazol-1-yl)-5-oxo-6,7-dihydro-5H-pyrrolo[3,4-b]pyridin-2-yl)-3-fluorobenzonitrile] | 0.009 to 0.1 nM | 0.1 to 10 nM | 30 to 100 nM | 100 to 2000 nM |
| N#Cc1cccc(F)c1-c1cc(-n2ccc(N3CCOCC(O)C3)n2)c2c(n1)CNC2=O (stereo not drawn) [I-121, 3-fluoro-2-(4-(3-(6-hydroxy-1,4-oxazepan-4-yl)-1H-pyrazol-1-yl)-5-oxo-6,7-dihydro-5H-pyrrolo[3,4-b]pyridin-2-yl)benzonitrile] | 0.1 to 10 nM | 10 to 100 nM | 30 to 100 nM | > 2000 nM |
| N#Cc1cccc(F)c1-c1cc(-n2ccc(N3CCCC(C(N)=O)C3)n2)c2c(n1)CNC2=O (stereo not drawn) [I-122, 1-(1-(2-(2-cyano-6-fluorophenyl)-5-oxo-6,7-dihydro-5H-pyrrolo[3,4-b]pyridin-4-yl)-1H-pyrazol-3-yl)piperidine-3-carboxamide] | 0.1 to 10 nM | 10 to 100 nM | 100 to 2000 nM | 100 to 2000 nM |
| CC(=O)NC1CCCN(c2ccn(-c3cc(-c4c(F)cccc4C#N)nc4c3C(=O)NC4)n2)C1 (stereo not drawn) [I-123, N-(1-(1-(2-(2-cyano-6-fluorophenyl)-5-oxo-6,7-dihydro-5H-pyrrolo[3,4-b]pyridin-4-yl)-1H-pyrazol-3-yl)piperidin-3-yl)acetamide] | 0.1 to 10 nM | 0.1 to 10 nM | 100 to 2000 nM | > 2000 nM |
| N#Cc1cccc(F)c1-c1cc(-n2ccc(N3CCC[C@H](C(N)=O)C3)n2)c2c(n1)CNC2=O [I-126, (S)-1-(1-(2-(2-cyano-6-fluorophenyl)-5-oxo-6,7-dihydro-5H-pyrrolo[3,4-b]pyridin-4-yl)-1H-pyrazol-3-yl)piperidine-3-carboxamide] | 0.1 to 10 nM | 10 to 100 nM | 100 to 2000 nM | 100 to 2000 nM |

Second part, the compound after the results:

| Ki [1] | Ki [2] | EC50 [3] | EC50 [4] | SMILES |
| --- | --- | --- | --- | --- |
| 0.1 to 10 nM | 10 to 100 nM | 30 to 100 nM | 100 to 2000 nM | N#Cc1cccc(F)c1-c1cc(-n2ccc(N3CCCC(C#N)C3)n2)c2c(n1)CNC2=O (stereo not drawn) [I-95, 1-(1-(2-(2-cyano-6-fluorophenyl)-5-oxo-6,7-dihydro-5H-pyrrolo[3,4-b]pyridin-4-yl)-1H-pyrazol-3-yl)piperidine-3-carbonitrile] |
| 0.1 to 10 nM | 10 to 100 nM | 30 to 100 nM | 100 to 2000 nM | N#Cc1cccc(F)c1-c1cc(-n2ccc(N3CCC[C@@H](CO)C3)n2)c2c(n1)CNC2=O [I-97, (R)-3-fluoro-2-(4-(3-(3-(hydroxymethyl)piperidin-1-yl)-1H-pyrazol-1-yl)-5-oxo-6,7-dihydro-5H-pyrrolo[3,4-b]pyridin-2-yl)benzonitrile] |
| 10 to 100 nM | 100 to 1000 nM | 100 to 2000 nM | 100 to 2000 nM | C[C@@H]1CC(O)C[C@H](C)N1c1ccn(-c2cc(-c3c(F)cccc3C#N)nc3c2C(=O)NC3)n1 (stereo partly drawn) [I-107, 3-fluoro-2-(4-(3-((2S,6R)-4-hydroxy-2,6-dimethylpiperidin-1-yl)-1H-pyrazol-1-yl)-5-oxo-6,7-dihydro-5H-pyrrolo[3,4-b]pyridin-2-yl)benzonitrile] |
| 0.1 to 10 nM | 10 to 100 nM | 100 to 2000 nM | 100 to 2000 nM | C[C@H]1CC[C@H](O)CN1c1ccn(-c2cc(-c3c(F)cccc3C#N)nc3c2C(=O)NC3)n1 [I-112, 3-fluoro-2-(4-(3-((2S,5S)-5-hydroxy-2-methylpiperidin-1-yl)-1H-pyrazol-1-yl)-5-oxo-6,7-dihydro-5H-pyrrolo[3,4-b]pyridin-2-yl)benzonitrile] |
| 0.1 to 10 nM | 0.1 to 10 nM | 100 to 2000 nM | 100 to 2000 nM | CS(=O)(=O)NC1CCN(c2ccn(-c3cc(-c4c(F)cccc4C#N)nc4c3C(=O)NC4)n2)C1 (stereo not drawn) [I-120, N-(1-(1-(2-(2-cyano-6-fluorophenyl)-5-oxo-6,7-dihydro-5H-pyrrolo[3,4-b]pyridin-4-yl)-1H-pyrazol-3-yl)pyrrolidin-3-yl)methanesulfonamide] |
| 10 to 100 nM | 100 to 1000 nM | > 2000 nM | > 2000 nM | N#Cc1cccc(F)c1-c1cc(-n2cc3c(n2)CNC3)c2c(n1)CNC2=O [I-124, 2-(4-(5,6-dihydropyrrolo[3,4-c]pyrazol-2 (4H)-yl)-5-oxo-6,7-dihydro-5H-pyrrolo[3,4-b]pyridin-2-yl)-3-fluorobenzonitrile] |
| 0.1 to 10 nM | 10 to 100 nM | 100 to 2000 nM | 100 to 2000 nM | N#Cc1cccc(F)c1-c1cc(-n2ccc(N3CCC[C@@H](C(N)=O)C3)n2)c2c(n1)CNC2=O [I-125, (R)-1-(1-(2-(2-cyano-6-fluorophenyl)-5-oxo-6,7-dihydro-5H-pyrrolo[3,4-b]pyridin-4-yl)-1H-pyrazol-3-yl)piperidine-3-carboxamide] |

From patent US10781204B2, “TYK2 inhibitors and uses thereof” (Nimbus Lakshmi, Inc., priority 2015, dated 2020)
